Measured values taken from patent US20260125645A1, “METHODS AND PHARMACOLOGICAL AGENTS FOR INCREASING EXPANSION, ENGRAFTMENT OR IMMUNE OUTPUT OF HUMAN HEMATOPOIETIC STEM CELLS IN TRANSPLANTATION AND DISEASE SETTINGS” (VALORISATION HSJ, LIMITED PARTNERSHIP, priority 2022, published 2026).

How the values were obtained:
[1] = system: cord-blood CD34^+ cells (HSC); assay: Human immune engraftment (% hCD45) in irradiated NSG mice injected with the progeny of ex vivo cultured cord-blood CD34+ cells
Description: The progeny of 7,500 cord-blood CD34+ cells was cultured under modified air-liquid interface (ALI) conditions for 10 days and injected in irradiated adult NSG mice. Cells were cultured in cytokine-containing (SCF, TPO, FLT-3L) serum-free media (StemSpan™ SFEM, LDL) containing UM729 (40 nM) with or without the addition of aryl hydrocarbon receptor (AhR) receptor antagonist CH-223191 (1 μM). Human immune reconstitution, expressed by the percentage of human CD45 (hCD45) over total CD45, was monitored in peripheral blood after 7, 14 and 25 weeks post-transplantation by flow cytometry. Mean percentage of human CD45 cell engraftment for 2 mice per condition is shown. […]
Since the ultimate aim is to improve the expansion of engraftable human HSC, the validation methods largely rely on the measurement of immune reconstitution, both short-term and long-term, after transplantation in a humanized mice model. Briefly, NSG mice (Jackson Laboratories, strain 005557) were sublethally irradiated at 2Gy 4 to 24 hours prior to CD34^+ cells intravenous (IV) injection. All harvested cells from 1 culture well were injected into one mouse. Wells from all conditions started with equal numbers of CD34^+ cells from the same source/donor. Therefore, all the progeny of a culture setting was injected into mice. Peripheral blood of humanized mice was harvested every 5 weeks, and human engraftment and immune reconstitution were analyzed by flow cytometry. The earliest point where human engraftment in mice was measured was after 5 weeks and the latest after 35 weeks. The impact of the ALI culture system on HSC engraftment capacity was assessed using base media purchased from STEMCELL Technologies (StemSpan SFEM). A dramatic effect of the ALI methodology on the engraftment of cord-blood HSC was observed relative to the published manual fed-batch culture methodology^4, which includes SCF, TPO, FLT3L and UM171 (FIG. 4).

Cord-blood CD34^+ cells = assay: Ex vivo expansion of the CD34+ population from cord-blood CD34+ cells, counted by flow cytometry; format: cell-based, human; settings: for expansion in CD34^+ population: UM171 40 nM, 10 days, SCF/TPO/FLT-3L StemSpan SFEM II
Description: Cord-blood CD34^+ cells were cultured under manual fed-batch (FB) or modified air-liquid interface (ALI) conditions for 10 days. Cells were cultured in cytokine-containing (SCF, TPO, FLT-3L) serum-free media (StemSpan™ SFEM II) where UM171 (40 nM) was added. CD34^+ cells total number was assessed by flow cytometry using […] beads (BD).
The progeny of 7,500 cord-blood CD34^+ cells was cultured under manual fed-batch (FB) conditions for 6 days and injected in irradiated adult NSG mice. Cells were cultured in cytokine-containing (SCF, TPO, FLT-3L) serum-free media (StemSpan SFEM II) where UM729 (500 nM) or a HTR1F-specific agonist LY573144 (250 nM final concentration) was added. The progeny of an equal number of CD34^+ cells cultured in the same conditions but without UM729 or LY573144 from the same source was used to determine baseline expansion (threshold indicated by the dotted line) and engraftment. Expansion fold, compared to untreated condition, of the CD34^+ population after 6 days of ex vivo culture is shown in the left panel. Human immune reconstitution was monitored in peripheral blood (middle panel) and bone marrow (right panel) at week 25 post-transplantation as described above. Mean percentage of human CD45 cell engraftment for 2 mice per condition is shown.
An experimental setup was designed where oxygen exchange in the media would be maximized, while adopting the principles of fed-batch cultures (FB) in which medium is renewed and in sufficient quantity to provide nutrients while diluting cell waste. […] In doing so, the maximum of cells was placed directly at the air-liquid interface so that gas exchanges are more efficient. Briefly, HSC were enriched based on CD34 expression marker, from cord-blood units using the Miltenyi CD34 MicroBead Kit UltraPure according to manufacturer's instruction. Purity was determined by flow cytometry using monoclonal CD34-PE antibodies (Clone 581, BD Pharmingen, 555822). […]
Using this culture method, the expansion of the stem cell population (defined as CD34^+ cells) in the culture wells after 10 days was first assessed. […]

[2] = system: human CB CD34+ (HSC engraftment); assay: In vivo administration of HTR1F agonist to NSG mice humanized with uncultured cord-blood CD34+ cells; human chimerism by flow cytometry; settings: 0.3 mg (10 mg/kg) intraperitoneally at 6 h, 24 h, 48 h
Description: 38,000 human CB CD34+ were injected intravenously into irradiated NSG mice (n=8, 16 hrs after irradiation). Starting from 6 hours post-transplantation, half of the mice (n=4) received, by intraperitoneal injection, 0.3 mg of Lasmiditan diluted in 0.02% DMSO in PBS (drug), for a total of 4 doses in regular intervals (6 h, 24 h, 48 h and 72 h) after human HSC injection. The second half (control) received I.P. injection of vehicle (0.02% DMSO in PBS) (n=4; vehicle). Human chimerism was assessed on peripheral blood until 19 weeks post-transplantation as described above, after which time mice were sacrificed and spleen and bone marrow were analyzed. SEM are depicted.
Lasmiditan, purchased from AdooQ Bioscience (product number A14198), was dissolved in DMSO and ethanol solution. […] Purity and viability were assessed by flow cytometry using the following staining: CD34-APC (Biolegend 343510), CD19-PE (Biolegend, 302208), CD3-PE-Cy7 (Biolegend, 344816), CD45-APC-Cy7 (Biolegend, 368516), 7-AAD (BD Biosciences, 559925), 1 μL AnnV-FITC (Biolegend, 640906). […] The dose was determined based on previous work with LY344864 (used ex vivo above, FIG. 10) in kidney injury recovery studies^16 and is consistent with the dosage of Reyvow® (Lasmiditan) for the treatment of migraine. […]

[3] = progeny of FB culture with LY573144 250 nM for 6 days, 25 weeks after injection

N[C@@H](Cc1cc(I)c(Oc2ccc(O)c(I)c2)c(I)c1)C(=O)O [T3, triiodothyronine]
engraftment of HSC in humanized mice (% hCD45+ lymphocytes in peripheral blood) ([1]; T3 45 ng/mL in SCF/TPO/FLT3L StemSpan SFEM containing UM171, FB culture 10 days, vs UM171 alone or with CH-223191): increased the engraftment of HSC

CN1CCC(C(=O)c2cccc(NC(=O)c3c(F)cc(F)cc3F)n2)CC1 [LY573144, 2,4,6-Trifluoro-N-[6-[(1-methyl-4-piperidinyl)carbonyl]-2-pyridinyl]benzamide]
expansion of the CD34^+ population compared to untreated condition (Cord-blood CD34^+ cells; LY573144 250 nM, FB culture, 6 days): two-fold
percentage of hCD45^+ cells in the blood [1, 3]: higher percentages
percentage of hCD45^+ cells in the bone marrow [1, 3]: higher percentages
presence of human immune cells (hCD45^+) in tissues of treated animals ([2]; 72 h, analysed up to 19 weeks): found in blood, spleen and bone marrow
reconstitution of the immune compartment (human chimerism) ([2]; 72 h after 38,000 CD34+ cells, followed to 19 weeks, vs vehicle): more robust reconstitution of the immune compartment

Cc1ccccc1N=Nc1ccc(NC(=O)c2ccnn2C)c(C)c1 [CH-223191]
engraftment capacity of cultured HSC (% hCD45 in peripheral blood) ([1]; CH-223191 1 μM added to ALI culture containing UM729, 10 days, blood at 7, 14 and 25 weeks, vs without CH-223191): did not further increase the engraftment capacity

CN(C)[C@@H]1CCc2[nH]c3ccc(NC(=O)c4ccc(F)cc4)cc3c2C1.Cl [LY344864, N-[(3R)-3-(Dimethylamino)-2,3,4,9-tetrahydro-1H-carbazol-6-yl]-4-fluorobenzamide hydrochloride]
peripheral blood engraftment (% hCD45) ([1]; LY344864 500 nM in StemSpan SFEM II with SCF/TPO/FLT-3L, 10 days, specifically ALI culture, vs media alone): greatly improved the peripheral blood engraftment

Cn1nnc(-c2ccc3c(c2)[nH]c2nc(Cc4ccccc4)nc(NC4CCC(N)CC4)c23)n1 (stereo not shown) [UM171]
expansion in CD34^+ population (Cord-blood CD34^+ cells; ALI culture): ~55 fold
expansion in CD34^+ population (Cord-blood CD34^+ cells; fed-batch (FB) culture): ~55 fold
